Experimental data reported in patent US5702883A, “Methods for detection of mutagens using luminescence gene” (Kabushiki Kaisha Toyota Chuo Kenkyusho, priority 1993, dated 1997).

Key:
[1] = tested on: S. typhimurium TA1535 (umu D,C SOS gene, luciferase expression); settings: for Minimum detectable concentration, Method of Present Invention: Table 1, response two times that without test substance, 37° C., 2 hours, S9Mix where necessary; for minimum detectable concentration, fold lower than conventional colorimetric method: first embodiment (luc) vs conventional method
[2] = tested on: S. typhimurium TA1535/pSK1002 (umu D,C SOS gene, β-galactosidase expression); experiment: Conventional colorimetric method (umu test, β-galactosidase activity), Comparative Example 3; settings: Table 1; response two times that without test substance; 37° C., 2 hours; S9Mix where necessary
[3] = tested on: S. typhimurium TA1535/pSK1002 (umu D,C SOS gene, β-galactosidase expression); experiment: Conventional colorimetric method (umu test, β-galactosidase activity), Comparative Example 4; settings: Table 2; response two times that without test substance; 37° C., 2 hours; S9 Mix where necessary
[4] = tested on: S. typhimurium TA1535 (umu D,C SOS gene, luminescence genes of pUCD620); experiment: Luminescence assay with genes for luciferase and the enzyme producing its substrate, Example 6; settings: Table 2; response two times that without test substance; 30° C., 2 hours; S9 Mix where necessary
[5] = Conventional colorimetric method (umu test, β-galactosidase activity), Comparative Example 3; settings: s. typhimurium ta1535/psk1002
in vitro = settings: s. typhimurium ta1535

Row | SMILES | Minimum detectable concentration, Method of Present Invention [1] [µg/mL] | minimum detectable concentration, fold lower than conventional colorimetric method [1] | Minimum detectable concentration, Conventional Method [2] [µg/mL] | Minimum detectable concentration, Conventional Method [3] [µg/mL] | Minimum detectable concentration, Method of Present Invention [4] [µg/mL] | dynamic range (highest value of the ratio), expansion relative to conventional colorimetric method ([1]; first embodiment vs conventional colorimetric method) | maximal fold induction [5] | maximal fold induction (in vitro)
1 | c1ccc2c(c1)cc1ccc3cccc4ccc2c1c34 [Bap, benzo[a]pyrene] | 0.1 | about 10 times | 1 | 1 | 0.04 |  |  | 
2 | O=[N+]([O-])c1cc[n+]([O-])c2ccccc12 [4NQO, 4-nitroquinoline 1-oxide] | 0.01 |  | 0.04 | 0.04 | 0.008 |  |  | 
3 | Nc1ccc2cc3ccccc3cc2c1 [2-AA, 2-aminoanthracene] | 0.04 |  | 0.1 | 0.1 | 0.02 |  |  | 
4 | NC(=O)C(=Cc1ccc([N+](=O)[O-])o1)c1ccco1 [AF-2, 2-(2-furyl)-3-(5-nitro-2-furyl)-acrylamide] | 0.0005 |  | 0.003 | 0.003 | 0.0005 | about 3 times | ~5 | ~15
5 | O=[N+]([O-])c1ccc2ccc3cccc4ccc1c2c34 [1-NP, 1-nitropyrene] | 0.03 | about 10 times | 0.3 | 0.3 | 0.05 |  |  | 
